From patent US20240368104A1, “Novel Dialkoxynaphtho[2,3-C]Furan-1(3H)-One Derivatives and Pharmaceutical Composition For Preventing or Treating Respiratory Disease or SARS-COV-2 Infection Disease, Comprising Same” (priority 2021, published 2024)
Where two headings read alike, the source gives them in different places.

Columns and labels:
SARS-COV-2 = test: microbe, parasite or virus in culture; assay type: cell-based; set-up: SI (Selectivity Index, CC50/IC50): unit not given here; details: for SI (Selectivity Index, CC50/IC50): SARS-COV-2, values >50 assumed to be 50; for IC50: read-out: SARS-COV-2 inhibition (IC50)
in vitro = details: African green monkey
[1] = Severe acute respiratory syndrome coronavirus 2, Vero cells, 24 hours infection
[2] = Severe acute respiratory syndrome coronavirus 2, Vero, 24 h

| Compound | SI (Selectivity Index, CC50/IC50) (SARS-COV-2) | IC50 (SARS-COV-2; [1]) [µM] | CC50 (in vitro) [µM] | IC50 (SARS-COV-2; [2]) [µM] |
| --- | --- | --- | --- | --- |
| CNc1ncc(-c2c3c(cc4cc(OC)c(OC)cc24)COC3=O)cn1 [Example 108, 6,7-dimethoxy-9-(2-(methylamino)pyrimidin-5-yl)naphtho[2,3-c]furan-1(3H)-one] | 18.03 | 2.77 | > 50 | – |
| COc1cc2cc3c(c(-c4ccc(N5CCC(O)CC5)nc4)c2cc1OC)C(=O)OC3 [Example 165, 9-(6-(4-hydroxypiperidin-1-yl)pyridin-3-yl)-6,7-dimethoxynaphtho[2,3-c]furan-1(3H)-one] | 11.69 | 2.91 | 34 | – |
| CCC(C)CNc1ncc(-c2c3c(cc4cc(OC)c(OC)cc24)COC3=O)cn1 (centres unmarked) [Example 64, 6,7-dimethoxy-9-(2-((2-methylbutyl)amino)pyrimidin-5-yl)naphtho[2,3-c]furan-1(3H)-one] | 1.00 | > 50 | > 50 | – |
| COc1cc2cc3c(c(-c4cnc(N5CC(C)CC(C)C5)nc4)c2cc1OC)C(=O)OC3 (centres unmarked) [Example 57, 9-(2-(3,5-dimethylpiperidin-1-yl)pyrimidin-5-yl)-6,7-dimethoxynaphtho[2,3-c]furan-1(3H)-one] | 12.07 | 4.14 | > 50 | – |
| COc1cc2c(OC)c3c(c(-c4ccc(N(C)c5cccc(C(F)(F)F)c5)nc4)c2cc1OC)COC3=O.Cl [Example 263, 6,7,9-trimethoxy-4-(6-(methyl(3-(trifluoromethyl)phenyl)amino)pyridin-3-yl)naphtho[2,3-c]furan-1(3H)-one] | 1.00 | – | > 50 | > 50 |
| COCCN(C)C(=O)[C@@H]1CCCN1c1ncc(-c2c3c(cc4cc(OC)c(OC)cc24)COC3=O)cn1 [Example 33, (S)-1-(5-(6,7-dimethoxy-3-oxo-1,3-dihydronaphtho[2,3-c]furan-4-yl)pyrimidin-2-yl)-N-(2-methoxyethyl)-N-methylpyrrolidin-2-carboxamide] | 1.00 | > 50 | > 50 | – |
| CC[C@@H]1CCCCN1c1ncc(-c2c3c(cc4cc(OC)c(OC)cc24)COC3=O)cn1 [Example 113, (R)-9-(2-(2-ethylpiperidin-1-yl)pyrimidin-5-yl)-6,7-dimethoxynaphtho[2,3-c]furan-1(3H)-one] | 50.52 | 0.99 | > 50 | – |
| CCN(C)c1ccc(-c2c3c(cc4cc(OC)c(OC)cc24)COC3=O)cn1 [Example 178, 9-(6-(ethyl(methyl)amino)pyridin-3-yl)-6,7-dimethoxynaphtho[2,3-c]furan-1(3H)-one] | 1323.43 | 0.04 | > 50 | – |
| COc1cc2cc3c(c(-c4ccc(N5CCc6ccccc6C5)nc4)c2cc1OC)C(=O)OC3.Cl [Example 189, 9-(6-(3,4-dihydroisoquinolin-2 (1H)-yl)pyridin-3-yl)-6,7-dimethoxynaphtho[2,3-c]furan-1(3H)-one] | 72.26 | – | > 50 | 0.69 |
| COc1ccc2c(-c3c4c(cc5cc(OC)c(OC)cc35)COC4=O)cc(C)nc2c1 [Example 141, 6,7-dimethoxy-9-(7-methoxy-2-methylquinolin-4-yl)naphtho[2,3-c]furan-1(3H)-one] | 2.07 | 24.2 | > 50 | – |
| COc1cc2cc3c(c(-c4cnc(N5CCCC(O)C5)nc4)c2cc1OC)C(=O)OC3.Cl (centres unmarked) [Example 80, 9-(2-(3-hydroxyperidin-1-ylpyrimidin-5-yl)-6,7-dimethoxynaphtho[2,3-c]furan-1(3H)-one hydrochloride] | – | – | > 50 | 11.9 |
| COc1cc2cc3c(c(-c4ccc(C(=O)c5ccccc5)s4)c2cc1OC)C(=O)OC3 [Example 53] | 19.94 | 2.51 | > 50 | – |
| COc1cc2cc3c(c(-c4cnc(N5C[C@@H](C)O[C@@H](C)C5)nc4)c2cc1OC)C(=O)OC3 [Example 8, 9-(2-((2S,6R)-2,6-dimethylmorpholino)pyrimidin-5-yl)-6,7-dimethoxynaphtho[2,3-c]furan-1(3H)-one] | 17.39 | 2.87 | > 50 | – |
| COc1cc2cc(CO)c(C(=O)[O-])c(-c3cc4c(cc3O)OCO4)c2cc1OC.[Na+] [Example 212, 1-(6-hydroxybenzo[d][1,3]dioxol-5-yl)-3-(hydroxymethyl)-6,7-dimethoxy-2-naphthoate sodium (I)] | 2.81 | 17.8 | > 50 | – |
| CCN(CC)CCNc1c2c(cc3cc(OC)c(OC)cc13)COC2=O [Example 6, 9-((2-(diethylamino)ethyl)amino)-6,7-dimethoxynaphtho[2,3-c]furan-1(3H)-one] | 1.00 | > 50 | > 50 | – |
| CCNc1cccc(-c2c3c(cc4cc(OC)c(OC)cc24)COC3=O)c1 [Example 258, 9-(3-(ethylamino)phenyl)-6,7-dimethoxynaphtho[2,3-c]furan-1(3H)-one] | 3.04 | 16.5 | > 50 | – |
| COc1cc2cc3c(c(-c4cc5c(cc4OC(=O)C(C)C)OCO5)c2cc1OC)C(=O)OC3 [Example 275, 6-(6,7-dimethoxy-3-oxo-1,3-dihydronaphtho[2,3-c]furan-4-yl)benzo[d][1,3]dioxol-5-yl isobutrate] | 1.76 | 28.4 | > 50 | – |
| COc1cc2cc3c(c(-c4cnc(N(C)CCC5=CCCCC5)nc4)c2cc1OC)C(=O)OC3.Cl [Example 101, 9-(2-((2-(cyclohex-1-en-1-yl)ethyl)(methyl)amino)pyrimidin-5-yl)-6,7-dimethoxynaphtho[2,3-c]furan-1(3H)-one hydrochloride] | 13.00 | – | > 50 | 3.85 |
| COc1cc2cc3c(c(N4CCNCC4)c2cc1OC)C(=O)OC3 [Example 128, 6,7-dimethoxy-9-(piperazin-1-yl)naphtho[2,3-c]furan-1(3H)-one] | 1.78 | – | > 50 | 28 |
| COc1cc2cc3c(c(-c4ccc(N5C(=O)OC[C@@H]5Cc5ccccc5)nc4)c2cc1OC)C(=O)OC3 [Example 211, (S)-4-benzyl-3-(5-(6,7-dimethoxy-3-oxo-1,3-dihydronaphtho[2,3-c]furan-4-yl)pyridin-2-yl) oxazolidin-2-one] | 12.50 | 4 | > 50 | – |
| COc1cc2cc3c(c(-c4ccc(N5CCOCC5)cc4)c2cc1OC)C(=O)OC3.Cl [Example 245, 6,7-dimethoxy-9-(4-morpholinophenyl)naphtho[2,3-c]furan-1(3H)-one] | 1.00 | – | > 50 | > 50 |
| COc1ccc2nc(C)cc(-c3c4c(cc5cc(OC)c(OC)cc35)COC4=O)c2c1 [Example 155, 6,7-dimethoxy-9-(6-methoxy-2-methylquinolin-4-yl)naphtho[2,3-c]furan-1(3H)-one] | 1.0 | > 50 | > 50 | – |
| CCN(CC1CCCO1)c1ccc(-c2c3c(cc4cc(OC)c(OC)cc24)COC3=O)cn1 (centres unmarked) [Example 193, 9-(6-(ethyl((tetrahydrofuran-2-yl)methyl)amino)pyridin-3-yl)-6,7-dimethoxynaphtho[2,3-c]furan-1(3H)-one] | 6.46 | 7.74 | > 50 | – |
| COc1cc2c(OC)c3c(c(-c4ccc5c(c4)OCO5)c2cc1OC)COC3=O [Example 262, 4-(benzo[d][1,3]dioxol-5-yl)-6,7,9-trimethoxynaphtho[2,3-c]furan-1(3H)-one] | 5.40 | – | > 50 | 9.26 |
| COc1cc2cc3c(c(-c4ccc(N5CC(C)CC(C)C5)nc4)c2cc1OC)C(=O)OC3 (centres unmarked) [Example 127, 9-(6-(3,5-dimethylpiperidin-1-yl)pyridin-3-yl)-6,7-dimethoxynaphtho[2,3-c]furan-1(3H)-one] | 45.29 | 1.1 | > 50 | – |
| COc1ncc(-c2c3c(cc4cc(OC)c(OC)cc24)COC3=O)cn1 [Example 26, 6,7-dimethoxy-9-(2-methoxypyrimidin-5-yl)naphtho[2,3-c]furan-1(3H)-one] | 9.52 | 5.25 | > 50 | – |
| COc1cc2cc3c(c(-c4ccc(N(C)C(=O)c5ccc(Cl)nc5)nc4)c2cc1OC)C(=O)OC3.Cl [Example 234, 6-chloro-N-(5-(6,7-dimethoxy-3-oxo-1,3-dihydronaphtho[2,3-c]furan-4-yl)pyridin-2-yl)-N-methylnicotinamide] | 1.00 | – | > 50 | > 50 |
| COc1cc2cc3c(c(-c4cnc(Oc5cccc6ccccc56)nc4)c2cc1OC)C(=O)OC3 [Example 21, 6,7-dimethoxy-9-(2-(naphthalen-1-yloxy)pyrimidin-5-yl)naphtho[2,3-c]furan-1(3H)-one] | 1.00 | > 50 | > 50 | – |
| COc1cc2cc3c(c(-c4ccc(N(C)c5ncn(C)n5)nc4)c2cc1OC)C(=O)OC3 [Example 206, 6,7-dimethoxy-9-(6-(methyl(1-methyl-1H-1,2,4-triazol-3-yl)amino)pyridin-3-yl)naphtho[2,3-c]furan-1(3H)-one] | 2.79 | 17.9 | > 50 | – |
| COc1cc2cc3c(c(N4CCN(c5ncc(Br)cn5)CC4)c2cc1OC)C(=O)OC3 [Example 131, 9-(4-(5-bromopyrimidin-2-yl)piperazin-1-yl)-6,7-dimethoxynaphtho[2,3-c]furan-1(3H)-one] | 1.44 | 34.6 | > 50 | – |
